Laboratory results published in patent US20250144091A1, “SITAGLIPTIN PREPARATION AND METHOD OF STORAGE THEREOF” (SAWAI PHARMACEUTICAL CO., LTD., priority 2023, published 2025).

Columns and labels:
[1] = Acceptable daily intake of NTTP (EMA/FDA); conditions: 37 ng corresponds to 0.088 ppm
Experimental: Recently, the European Medicines Agency (EMA) and the U.S. Food and Drug Administration (FDA) have announced that 7-Nitroso-3-(trifluoromethyl)-5,6,7,8-tetrahydro[1,2,4]triazolo-[4,3-a]pyrazine (NTTP), which is classified into nitrosamines, has been detected in a sitagliptin preparation. Nitrosamines are known to be potentially carcinogenic, and an acceptable intake of NTTP is set at 37 ng daily. NTTP is produced by the reaction of 3-(trifluoromethyl) 5,6,7,8-tetrahydro[1,2,4]triazolo-[4,3-a]pyrazine, which is produced by hydrolysis of sitagliptin, with nitrogen oxides such as nitrous acid. Nitrogen oxides are contained in small amounts in additives, as well as in the water and air used in the preparation process. Although the production pathway of NTTP is expected as described above, its reactivity is unknown. Therefore, a specific method for reducing the amount of NTTP in a preparation was completely unknown.
Generally, the criterion for reporting the amount of related substances in a preparation is 1,000 ppm, but it is a very difficult task to suppress the production of NTTP in a sitagliptin preparation because a daily acceptable intake of NTTP of 37 ng corresponds to 0.088 ppm.

[2] = set limit for nitrosamine in sitagliptin preparation; cited from earlier work

## O=NN1CCn2c(nnc2C(F)(F)F)C1 [NTTP, 7-Nitroso-3-(trifluoromethyl)-5,6,7,8-tetrahydro[1,2,4]triazolo-[4,3-a]pyrazine]
[1]
  daily acceptable intake of NTTP expressed as content in the preparation: 0.088 ppm
[2]
  acceptable intake of NTTP: 37 ng daily
